In brackets after ≈: the same amount, converted by molar mass. Read-outs that look alike come from different tables or passages of the source. Square brackets hold non-standard residues; d marks the D form. Peptide text beside a SMILES is read from it. * marks the point of attachment. Lauroyl = CCCCCCCCCCCC(=O)*; 12Ado = NCCCCCCCCCCCC(=O)O; Decanoyl = CCCCCCCCCC(=O)*; Octanoyl = CCCCCCCC(=O)*; Hexanoyl = CCCCCC(=O)*; Butyryl = CCCC(=O)*
What was measured:
[1] = tested on: methicillin-resistant S. epidermidis (MRSE); type: in vivo; conditions: rats, MRSE challenge, explanted at 7 days
From the text: (§1) Animals: Adult male Wistar rats, 250-300 gr (I.N.R.C.A. I.R.R.C.S. animal facility, Ancona) were used, with 15 animals per experimental group.
(§2) Mammalian graft infection model: Rats were anesthetized and their hair of the back was shaved and the skin cleansed with 10 percent povidone-iodine solution. One subcutaneous pocket was made on each side of the median line by a 1.5 cm incision. Aseptically, 1 square centimeter sterile albumin-sealed Dacron™ grafts (Albograft™, Sorin Biomedica Cardio, S.p.A., Saluggia VC, Italy) were implanted into the pockets. Prior to implantation grafts were soaked for 20 minutes in sterile antibiotic solutions. The pockets were closed by means of skin clips and saline solution (1 mL) containing methicillin-resistant S. aureus (MRSA) or S. epidermidis (MRSE) at a concentration of 2×10^7 colony-forming units (CFU)/mL was inoculated onto the graft surface by using a tuberculin syringe to create a subcutaneous fluid-filled pocket. The animals were returned to individual cages and thoroughly examined daily. All grafts were explanted at 7 days following implantation.
(§3) Assessment of the infection: The explanted grafts were placed in sterile tubes, washed in sterile saline solution, placed in tubes containing 10 mL of phosphate-buffered saline solution and sonicated for 5 minutes to remove the adherent bacteria from the grafts (Balaban, N. et al, 2003. Kidney Int. 63: 340-345). Quantitation of viable staphylococci was performed by culturing serial dilutions (0.1 mL) of the bacterial suspensions on blood agar plates at 37 degrees centigrade for 48 hours. The organisms were quantitated by counting the number of colony-forming units (CFUs) per plate. The limit of detection for this method was approximately 10 CFU/mL.
(§4) Statistical analysis: MIC values are presented as the geometric mean of three separate experiments. […] Significance was accepted when the P value was less than/equal to 0.05.

[2] = tested on: methicillin-resistant S. aureus (MRSA); type: in vivo; conditions: rats, MRSA challenge, explanted at 7 days
From the text: as §1, §2, §3, §4

[3] = tested on: S. aureus cells; assay: Bacterial growth (CFU) of S. aureus culture grown with peptides; type: cell-based; conditions: in-vitro culture grown 2.5 hours with peptide, FIG. 5a
Protocol: (§5) RNAIII synthesis and bacterial growth: Cultures of S. aureus (20 million cells in a volume of 30 microliters) containing an expression construct for expression of the fusion protein maiii::blaZ (described in Gov, Y. et al., 2001. Peptides. 22: 1609-20 were grown for 2.5 hours with 5 microliters peptide solution or control buffer. A 5 microliter sample was taken from the cultures, diluted in saline, and streaked on LB agar plates to quantitate CFUs. The remainder of the cultures were used to determine RNAIII synthesis (beta-lactamase activity). This was performed by adding a substrate of beta-lactamase (nitrocefin), and determining OD 490 nm/OD 650 nm, as previously described (Gov, Y. et al., 2001. Peptides. 22: 1609-20).

[4] = tested on: S. aureus; assay: MIC assayed against S. aureus (Table 1); type: cell-based
[5] = tested on: RNAIII synthesis; assay: RNAIII synthesis (beta-lactamase reporter, nitrocefin); type: cell-based, S. aureus
Protocol: as §5

[6] = graft presoaked in 10 micrograms/mL peptide
[7] = graft presoaked in 20 micrograms/mL peptide
[8] = graft presoaked in 50 micrograms/mL peptide

Structure (SMILES): CC(C)C[C@H](NC(=O)[C@H](C)N)C(=O)N[C@@H](Cc1c[nH]c2ccccc12)C(=O)N[C@@H](CCCCN)C(=O)N[C@H](C(=O)N[C@@H](CC(C)C)C(=O)N[C@@H](CC(C)C)C(=O)N[C@@H](CCCCN)C(=O)N[C@@H](CCCCN)C(=O)N[C@H](C(=O)N[C@@H](CC(C)C)C(=O)N[C@@H](CCCCN)C(=O)N[C@@H](C)C(N)=O)C(C)C)[C@@H](C)O [DD13] (H-ALWKTLLKKVLKA-NH2; N-terminus assumed)
- Graft bacterial load (quantitative culture) [1, 6]: 5.2×10^2±1.6×10^2 CFU/ml
- Graft bacterial load (quantitative culture) [1, 7]: 4.4×10^1±1.3×10^1 CFU/ml
- Graft bacterial load (quantitative culture) [1, 8]: negative quantitative cultures
- Graft bacterial load (quantitative culture) [2, 6]: 5.2×10^2±1.6×10^2 CFU/ml
- Graft bacterial load (quantitative culture) [2, 7]: 4.0×10^1±1.7×10^1 CFU/ml
- Graft bacterial load (quantitative culture) [2, 8]: negative quantitative cultures
- Bactericidal activity (CFU counts) [3]: potent bactericidal activity
- MIC (minimal inhibitory concentration) [4]: 9 ± 3 µM (≈ 13.6 µg/mL)
- Inhibition of RNAIII synthesis ([5]; FIG. 5b, at high peptide concentrations mostly attributable to cell death): more efficient than RIP
- Effect on RNAIII synthesis at low peptide concentrations ([5]; low peptide concentrations where no cell death occurred (inset FIG. 5b)): unable to affect RNAIII synthesis

Structure (SMILES): CC(=O)N[C@@H](C)C(=O)N[C@@H](CC(C)C)C(=O)N[C@@H](Cc1c[nH]c2ccccc12)C(=O)N[C@@H](CCCCN)C(=O)N[C@H](C(=O)N[C@@H](CC(C)C)C(=O)N[C@@H](CC(C)C)C(=O)N[C@@H](CCCCN)C(=O)N[C@@H](CCCCN)C(=O)N[C@H](C(=O)N[C@@H](CC(C)C)C(=O)N[C@@H](CCCCN)C(=O)N[C@@H](C)C(N)=O)C(C)C)[C@@H](C)O [SEQ ID NO: 1, C2—, —CONH2] (Ac-ALWKTLLKKVLKA-NH2)
- MIC (minimal inhibitory concentration) [4]: 25 µM (≈ 38.8 µg/mL)

Structure (SMILES): CCCC(=O)N[C@@H](C)C(=O)N[C@@H](CC(C)C)C(=O)N[C@@H](Cc1c[nH]c2ccccc12)C(=O)N[C@@H](CCCCN)C(=O)N[C@H](C(=O)N[C@@H](CC(C)C)C(=O)N[C@@H](CC(C)C)C(=O)N[C@@H](CCCCN)C(=O)N[C@@H](CCCCN)C(=O)N[C@H](C(=O)N[C@@H](CC(C)C)C(=O)N[C@@H](CCCCN)C(=O)N[C@@H](C)C(N)=O)C(C)C)[C@@H](C)O [SEQ ID NO: 1, C4—, —CONH2] (Butyryl-ALWKTLLKKVLKA-NH2)
- MIC (minimal inhibitory concentration) [4]: 12 µM (≈ 19 µg/mL)

Structure (SMILES): CCCCCC(=O)N[C@@H](C)C(=O)N[C@@H](CC(C)C)C(=O)N[C@@H](Cc1c[nH]c2ccccc12)C(=O)N[C@@H](CCCCN)C(=O)N[C@H](C(=O)N[C@@H](CC(C)C)C(=O)N[C@@H](CC(C)C)C(=O)N[C@@H](CCCCN)C(=O)N[C@@H](CCCCN)C(=O)N[C@H](C(=O)N[C@@H](CC(C)C)C(=O)N[C@@H](CCCCN)C(=O)N[C@@H](C)C(N)=O)C(C)C)[C@@H](C)O [SEQ ID NO: 1, C6—, —CONH2] (Hexanoyl-ALWKTLLKKVLKA-NH2)
- MIC (minimal inhibitory concentration) [4]: 2.2 ± 0.8 µM (≈ 3.54 µg/mL)

Structure (SMILES): CCCCCCCC(=O)N[C@@H](C)C(=O)N[C@@H](CC(C)C)C(=O)N[C@@H](Cc1c[nH]c2ccccc12)C(=O)N[C@@H](CCCCN)C(=O)N[C@H](C(=O)N[C@@H](CC(C)C)C(=O)N[C@@H](CC(C)C)C(=O)N[C@@H](CCCCN)C(=O)N[C@@H](CCCCN)C(=O)N[C@H](C(=O)N[C@@H](CC(C)C)C(=O)N[C@@H](CCCCN)C(=O)N[C@@H](C)C(N)=O)C(C)C)[C@@H](C)O [SEQ ID NO: 1, C8—, —CONH2] (Octanoyl-ALWKTLLKKVLKA-NH2)
- MIC (minimal inhibitory concentration) [4]: 1.5 µM (≈ 2.46 µg/mL)

Structure (SMILES): CCCCCCCCCC(=O)N[C@@H](C)C(=O)N[C@@H](CC(C)C)C(=O)N[C@@H](Cc1c[nH]c2ccccc12)C(=O)N[C@@H](CCCCN)C(=O)N[C@H](C(=O)N[C@@H](CC(C)C)C(=O)N[C@@H](CC(C)C)C(=O)N[C@@H](CCCCN)C(=O)N[C@@H](CCCCN)C(=O)N[C@H](C(=O)N[C@@H](CC(C)C)C(=O)N[C@@H](CCCCN)C(=O)N[C@@H](C)C(N)=O)C(C)C)[C@@H](C)O [SEQ ID NO: 1, C10—, —CONH2] (Decanoyl-ALWKTLLKKVLKA-NH2)
- MIC (minimal inhibitory concentration) [4]: 1.5 µM (≈ 2.5 µg/mL)

Structure (SMILES): CCCCCCCCCCCC(=O)N[C@@H](C)C(=O)N[C@@H](CC(C)C)C(=O)N[C@@H](Cc1c[nH]c2ccccc12)C(=O)N[C@@H](CCCCN)C(=O)N[C@H](C(=O)N[C@@H](CC(C)C)C(=O)N[C@@H](CC(C)C)C(=O)N[C@@H](CCCCN)C(=O)N[C@@H](CCCCN)C(=O)N[C@H](C(=O)N[C@@H](CC(C)C)C(=O)N[C@@H](CCCCN)C(=O)N[C@@H](C)C(N)=O)C(C)C)[C@@H](C)O [SEQ ID NO: 1, C12—, —CONH2] (Lauroyl-ALWKTLLKKVLKA-NH2)
- MIC (minimal inhibitory concentration) [4]: 4.5 ± 1.5 µM (≈ 7.62 µg/mL)

Structure (SMILES): CC(C)C[C@H](NC(=O)[C@H](C)NC(=O)CCCCCCCCCCCN)C(=O)N[C@@H](Cc1c[nH]c2ccccc12)C(=O)N[C@@H](CCCCN)C(=O)N[C@H](C(=O)N[C@@H](CC(C)C)C(=O)N[C@@H](CC(C)C)C(=O)N[C@@H](CCCCN)C(=O)N[C@@H](CCCCN)C(=O)N[C@H](C(=O)N[C@@H](CC(C)C)C(=O)N[C@@H](CCCCN)C(=O)N[C@@H](C)C(N)=O)C(C)C)[C@@H](C)O [SEQ ID NO: 1, NC12—, —CONH2] (H-[12Ado]ALWKTLLKKVLKA-NH2)
- MIC (minimal inhibitory concentration) [4]: 0.75 µM (≈ 1.28 µg/mL)

Structure (SMILES): CC(C)C[C@H](NC(=O)[C@H](Cc1c[nH]c2ccccc12)NC(=O)[C@H](CCCCN)NC(=O)[C@@H](NC(=O)[C@H](CC(C)C)NC(=O)[C@H](CC(C)C)NC(=O)[C@H](CCCCN)NC(=O)[C@H](CCCCN)NC(=O)[C@@H](NC(=O)[C@H](CC(C)C)NC(=O)[C@H](CCCCN)NC(=O)[C@H](C)NC(=O)CCCCCCCCCCCN)C(C)C)[C@@H](C)O)C(=O)N[C@@H](C)C(N)=O [SEQ ID NO: 2, NC12—, —CONH2]
- MIC (minimal inhibitory concentration) [4]: 1.5 µM (≈ 2.56 µg/mL)

Structure (SMILES): CC(C)C[C@H](NC(=O)[C@H](C)NC(=O)[C@H](CCCCN)NC(=O)CCCCCCCCCCCN)C(=O)N[C@@H](Cc1c[nH]c2ccccc12)C(=O)N[C@@H](CCCCN)C(=O)N[C@H](C(=O)N[C@@H](CC(C)C)C(=O)N[C@@H](CC(C)C)C(=O)N[C@@H](CCCCN)C(=O)N[C@@H](CCCCN)C(=O)N[C@H](C(=O)N[C@@H](CC(C)C)C(=O)N[C@@H](CCCCN)C(=O)N[C@@H](C)C(N)=O)C(C)C)[C@@H](C)O [SEQ ID NO: 3, NC12—, —CONH2]
- MIC (minimal inhibitory concentration) [4]: 1.5 µM (≈ 2.75 µg/mL)

Structure (SMILES): CCCCCCCCCCCC(=O)N[C@@H](C)C(=O)N[C@@H](CC(C)C)C(=O)N[C@@H](Cc1c[nH]c2ccccc12)C(=O)N[C@@H](CCCCN)C(=O)N[C@H](C(=O)N[C@@H](CC(C)C)C(=O)N[C@@H](CC(C)C)C(=O)N[C@@H](CCCCN)C(=O)N[C@@H](CCCCN)C(=O)N[C@H](C(N)=O)C(C)C)[C@@H](C)O [SEQ ID NO: 4, C12, —CONH2] (Lauroyl-ALWKTLLKKV-NH2)
- MIC (minimal inhibitory concentration) [4]: 3 µM (≈ 4.14 µg/mL)

Structure (SMILES): CCCCCCCCCCCC(=O)N[C@H](C(=O)N[C@@H](CC(C)C)C(=O)N[C@@H](CC(C)C)C(=O)N[C@@H](CCCCN)C(=O)N[C@@H](CCCCN)C(=O)N[C@H](C(=O)N[C@@H](CC(C)C)C(=O)N[C@@H](CCCCN)C(=O)N[C@@H](C)C(N)=O)C(C)C)[C@@H](C)O [SEQ ID NO: 5, C12, —CONH2] (Lauroyl-TLLKKVLKA-NH2)
- MIC (minimal inhibitory concentration) [4]: 1.5 ± 0.75 µM (≈ 1.79 µg/mL)

Source: US20060121083A1 (priority 2003, published 2006)
